According to patent publication US8140141B2, “Devices and methods for fluorescent inspection and/or removal of material in a sample” (University of Utah Research Foundation, priority 2006, dated 2012):

Experiments:
[1] = conventional blue dyes for sentinel lymph node procedures, after injection into tissue; cited from earlier work
[2] = test system: HCT-116 human colon tumor cells
[3] = test system: P-388 murine leukemia cells

CN(C)c1ccc2nc3ccc(=[N+](C)C)cc-3sc2c1 [methylene blue]
Passage out of lymphatic ducts into surrounding tissue [1]: tend to flow out of the lymphatic ducts into the surrounding tissue very quickly

doxorubicin-cobalamin conjugate
Cellular uptake [2]: can be observed | Cellular uptake [3]: can be observed

CCN(CC)c1ccc(C(=C2C=CC(=[N+](CC)CC)C=C2)c2cc(S(=O)(=O)[O-])ccc2S(=O)(=O)[O-])cc1.[Na+] [Lymphazurine]
Passage out of lymphatic ducts into surrounding tissue [1]: tend to flow out of the lymphatic ducts into the surrounding tissue very quickly
